Common to all, as to assay type: functional
The test system of one assay is Candida albicans. Put plainly: Minimum inhibitory concentration against Candida albicans was determined.
Assay [1] concerns Enterococcus faecium. Put plainly: Minimum inhibitory concentration against Enterococcus faecium was determined; Range is […] ug/mL.
The subject of assay [2] is Enterococcus faecalis. Put plainly: Minimum inhibitory concentration against Enterococcus faecalis was determined; Range is […] ug/mL.
The nature of assay [3]: Minimum inhibitory concentration against Gram(-) sp. was determined; Range is […] ug/mL.
Assay [4] has as its system Staphylococcus aureus. Put plainly: Minimum inhibitory concentration against Staphylococcus aureus (MRCNS) was determined.
Assay [5] concerns Staphylococcus aureus. Put plainly: Minimum inhibitory concentration against Staphylococcus aureus (MRSA) was determined; Range is 32-64 ug/mL.
The test system of assay [6] is Staphylococcus aureus. Put plainly: Minimum inhibitory concentration against Staphylococcus aureus (MSCNS) was determined.
For assay [7], the system named is Streptococcus. Briefly: Minimum inhibitory concentration against Streptococcus was determined; […].
The test system of assay [8] is Staphylococcus aureus. Briefly: Minimum inhibitory concentration against Staphylococcus aureus (MSSA) was determined; Range is 32-64 ug/mL.
A further assay deals with Enterococcus sp. Briefly: Minimum inhibitory concentration against Enterococcus species. was determined.
Assay [9] deals with Staphylococcus aureus. Briefly: Minimum inhibitory concentration against Staphylococcus aureus was determined.
Assay [10] has as its system Streptococcus. Briefly: Minimum inhibitory concentration against Streptococcus species. was determined.
Assay [11] has as its system Enterococcus faecium. Briefly: Minimum inhibitory concentration against Enterococcus faecium was determined; Range is 2-4 ug/mL.
In assay [12] the test system is Enterococcus faecalis. Briefly: Minimum inhibitory concentration against Enterococcus faecalis was determined; Range is 2-4 ug/mL.
The nature of assay [13]: Minimum inhibitory concentration against Gram(-) sp. was determined; Range is 32->128 ug/mL.
The next assay concerns Mus musculus. Put plainly: In vivo activity against Staphylococcus aureus smith was determined after iv administration in mice. The conditions noted are these: Mus musculus, iv; read-out: ED50.
The subject of assay [14] is Staphylococcus aureus. Briefly: Minimum inhibitory concentration against Staphylococcus aureus smith.
For assay [15], the system named is Staphylococcus aureus. Briefly: Minimum inhibitory concentration against Staphylococcus aureus (MRCNS) was determined; Range is 0.25-1 ug/mL.
The test system of assay [16] is Staphylococcus aureus. Put plainly: Minimum inhibitory concentration against Staphylococcus aureus (MRSA) was determined; Range is […] ug/mL.
Assay [17] relates to Staphylococcus aureus. Put plainly: Minimum inhibitory concentration against Staphylococcus aureus (MSCNS) was determined; Range is <=0.12-0.5 ug/mL.
Assay [18] deals with Streptococcus. Put plainly: Minimum inhibitory concentration against Streptococcus was determined.
Assay [19] deals with Staphylococcus aureus. Briefly: Minimum inhibitory concentration against Staphylococcus aureus (MSSA) was determined; Range is 1-4 ug/mL.

Values after ≈ are worked out from the molar mass of the structure shown.

With `C[C@@H](c1ccccc1)[C@@H]1NC(=O)CNC(=O)[C@H](CO)NC(=O)[C@@H]([C@@H](O)[C@@H]2CN=C(N)N2[C@H]2O[C@H](O)[C@@H](O)[C@H](O)[C@@H]2O)NC(=O)[C@H]([C@@H](O)[C@@H]2CN=C(N)N2)NC(=O)[C@@H](Cc2ccc(O[C@H]3O[C@H](CO)[C@@H](O[C@H]4O[C@H](CO)[C@@H](O)[C@H](O)[C@@H]4OCc4ccc(OCc5ccccc5)cc4)[C@H](O)[C@@H]3O)cc2)NC1=O`, the MIC was 128 µg/mL (≈ 86.6 µM) in the assay on Candida albicans; 16 µg/mL (≈ 10.8 µM) against Enterococcus faecium [1]; 64 µg/mL (≈ 43.3 µM) in the assay with Enterococcus faecalis [2]; above 128 µg/mL in assay [3]; 32 µg/mL (≈ 21.7 µM) against Staphylococcus aureus [4]; 32 µg/mL (≈ 21.7 µM) with Staphylococcus aureus [5]. Further, the MIC against Staphylococcus aureus [6] amounted to 16 µg/mL (≈ 10.8 µM); against Streptococcus [7], 2 µg/mL (≈ 1.35 µM); in the assay on Staphylococcus aureus [8], 32 µg/mL (≈ 21.7 µM).
As to `CC(C)CC(=O)O[C@@H]1[C@H](O)[C@@H](O[C@H]2[C@H](O)[C@H](O)[C@@H](Oc3ccc(C[C@H]4NC(=O)[C@H]([C@@H](C)c5ccccc5)NC(=O)CNC(=O)[C@H](CO)NC(=O)[C@@H]([C@@H](O)[C@@H]5CN=C(N)N5[C@H]5O[C@H](O)[C@@H](O)[C@H](O)[C@@H]5O)NC(=O)[C@H]([C@@H](O)[C@@H]5CN=C(N)N5)NC4=O)cc3)O[C@@H]2CO)O[C@H](CO)[C@H]1O`, the MIC turned out to be 64 µg/mL (≈ 46.9 µM) against Enterococcus sp., 8 µg/mL (≈ 5.86 µM) in the assay on Staphylococcus aureus [9] and 8 µg/mL (≈ 5.86 µM) with Streptococcus [10].
Take `C[C@@H](c1ccccc1)[C@@H]1NC(=O)CNC(=O)[C@H](CO)NC(=O)[C@@H]([C@@H](O)[C@@H]2CN=C(N)N2[C@H]2O[C@H](O)[C@@H](O)[C@H](O)[C@@H]2O)NC(=O)[C@H]([C@@H](O)[C@@H]2CN=C(N)N2)NC(=O)[C@@H](Cc2ccc(O[C@H]3O[C@H](CO)[C@@H](O[C@H]4O[C@H](CO)[C@@H](OCc5ccc(OCc6ccccc6)cc5)[C@H](O)[C@@H]4O)[C@H](O)[C@@H]3O)cc2)NC1=O`: the minimal inhibitory concentration (MIC) in the assay with Candida albicans is above 128 µg/mL; against Enterococcus faecium [11] it was 2 µg/mL (≈ 1.35 µM); with Enterococcus faecalis [12], 2 µg/mL (≈ 1.35 µM); in assay [13], 32 µg/mL (≈ 21.7 µM); in the assay with Staphylococcus aureus [14] it was 1 µg/mL (≈ 0.677 µM); in the assay with Staphylococcus aureus [15], 0.25 µg/mL (≈ 0.169 µM). For the same compound, the MIC is 1 µg/mL (≈ 0.677 µM) in the assay on Staphylococcus aureus [16], at most 0.12 µg/mL in the assay with Staphylococcus aureus [17], below 0.12 µg/mL in the assay with Streptococcus [18] and 1 µg/mL (≈ 0.677 µM) against Staphylococcus aureus [19]. Further, in the assay with Mus musculus, the ED50 amounted to 0.06 mg/kg.
`C[C@@H](c1ccccc1)[C@@H]1NC(=O)CNC(=O)[C@H](CO)NC(=O)[C@@H]([C@@H](O)[C@@H]2CN=C(N)N2[C@H]2O[C@H](O)[C@@H](O)[C@H](O)[C@@H]2O)NC(=O)[C@H]([C@@H](O)[C@@H]2CN=C(N)N2)NC(=O)[C@@H](Cc2ccc(O[C@H]3O[C@H](CO)[C@@H](O[C@H]4O[C@H](CO)[C@@H](O)[C@H](O)[C@@H]4O)[C@H](O)[C@@H]3O)cc2)NC1=O`: the MIC against Enterococcus sp. is 128 µg/mL (≈ 99.9 µM); in the assay on Staphylococcus aureus [9], above 128 µg/mL; with Streptococcus [10], 32 µg/mL (≈ 25 µM).

In general, MIC refers to the lowest concentration found to suppress growth. Usually ED50 stands for the dose at which the effect has come halfway, by size or by number of responders.
